The compounds below were run against T1, Astrosclerin-3 (Astrosclera willeyana, UniProt A6YCJ1) (assay: biochemical).
T1 sequence (A6YCJ1 whole entry): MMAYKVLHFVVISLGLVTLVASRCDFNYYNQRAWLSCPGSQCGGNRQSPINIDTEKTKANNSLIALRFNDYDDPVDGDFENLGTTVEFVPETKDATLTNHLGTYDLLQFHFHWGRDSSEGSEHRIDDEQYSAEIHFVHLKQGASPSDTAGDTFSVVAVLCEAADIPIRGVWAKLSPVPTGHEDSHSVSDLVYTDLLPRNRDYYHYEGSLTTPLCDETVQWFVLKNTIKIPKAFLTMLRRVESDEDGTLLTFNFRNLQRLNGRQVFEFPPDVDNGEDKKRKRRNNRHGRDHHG
Format: cell-based
Description: Inhibition of Astrosclera willeyana recombinant GST-tagged astrosclerin 3 expressed in Escherichia coli BL21-DE3-RIPL cells preincubated for 15 mins measured for 10 to 100 secs by stopped flow CO2 hydration assay

**Q.** [O-][Cl+3]([O-])([O-])O [SODIUM PERCHLORATE] was tested. Which Ki did it give?
**A.** 5110 µM

**Q.** For [Cl-].[Na+] [SODIUM CHLORIDE], which Ki is on record?
**A.** 460 µM

**Q.** Which Ki does the source give for NS(N)(=O)=O [SULFAMIDE] here?
**A.** 8.9 µM

**Q.** For O=[Se](=O)(O)O [SODIUM SELENATE], which Ki is on record?
**A.** 880 µM

**Q.** With [Br-].[Na+] [SODIUM BROMIDE] as the compound, how does the Ki read?
**A.** 30600 µM

**Q.** [N-]=[N+]=[N-] [SODIUM AZIDE] was tested. Which Ki did it give?
**A.** 27800 µM

**Q.** With NS(=O)(=O)O [SODIUM SULFAMATE] as the compound, how does the Ki read?
**A.** 13 µM

**Q.** How did the Ki turn out when O=[Te](=O)(O)O [SODIUM TELLURATE] was run?
**A.** 750 µM

**Q.** For CCN(CC)C(=S)S [DITIOCARB SODIUM], which Ki is on record?
**A.** 450 µM

**Q.** Which Ki does the source give for O=NO [SODIUM NITRITE] here?
**A.** 63800 µM

**Q.** For [I-].[Na+] [SODIUM IODIDE], which Ki is on record?
**A.** 10400 µM

**Q.** Which Ki does the source give for OB(O)c1ccccc1 [PHENYLBORONIC ACID] here?
**A.** 9.6 µM

**Q.** With F[B-](F)(F)F.[Na+] [SODIUM TETRAFLUOROBORATE] as the compound, how does the Ki read?
**A.** > 200000 µM

**Q.** Which Ki does the source give for O=C([O-])O.[Na+] [SODIUM BICARBONATE] here?
**A.** 22800 µM

**Q.** For O=S(=O)([O-])[O-].[Na+].[Na+] [SODIUM SULFATE ANHYDROUS], which Ki is on record?
**A.** 76300 µM

**Q.** O=[N+]([O-])[O-].[Na+] [SODIUM NITRATE] was tested. Which Ki did it give?
**A.** 76400 µM

**Q.** How did the Ki turn out when O=P(O)(O)OP(=O)(O)O [SODIUM PYROPHOSPHATE] was run?
**A.** 57700 µM

**Q.** How did the Ki turn out when O=S([O-])O.[Na+] [SODIUM BISULFITE] was run?
**A.** 320 µM

**Q.** O=S(=O)(O)OOS(=O)(=O)O [SODIUM PERSULFATE] was tested. Which Ki did it give?
**A.** 70600 µM

**Q.** With O=BOB(O)OB(O)OB=O [SODIUM TETRABORATE] as the compound, how does the Ki read?
**A.** 21900 µM

**Q.** Which Ki does the source give for O=S(=O)(O)NS(=O)(=O)O [SODIUM IMINODISULFONATE] here?
**A.** 660 µM

**Q.** For [F-].[Na+] [SODIUM FLUORIDE], which Ki is on record?
**A.** 940 µM

**Q.** With O=S(=O)(O)OS(=O)(=O)O [SODIUM PYROSULFATE] as the compound, how does the Ki read?
**A.** 88100 µM

**Q.** How did the Ki turn out when N#CO [SODIUM CYANATE] was run?
**A.** 230 µM

**Q.** For N#C[SeH] [SODIUM SELENOCYANATE], which Ki is on record?
**A.** 770 µM

**Q.** For S=C(S)S [SODIUM CARBONOTRITHIOATE], which Ki is on record?
**A.** 710 µM

**Q.** With S [SODIUM HYDROSULFIDE] as the compound, how does the Ki read?
**A.** 490 µM

**Q.** O=C([O-])[O-].[Na+].[Na+] [SODIUM CARBONATE] was tested. Which Ki did it give?
**A.** 13500 µM

Source: ChEMBL document CHEMBL1949581, “Anion inhibition studies of an α-carbonic anhydrase from the living fossil Astrosclera willeyana” (Bioorg Med Chem Lett, 2012)
